Source: patent US20250082633A1, “COMPOUNDS AND METHODS FOR MODULATING SPLICING” (REMIX THERAPEUTICS INC., priority 2021, published 2025)
Like-named read-outs stand apart in the source and are kept apart here.

What was measured:
Assay type in all cases: cell-based
HTT mRNA = test: RT-qPCR splicing assay, HTT canonical (CJ) and alternative (AJ) junction mRNA; details: Homo sapiens; for IC50: read-out: HTT CJ IC50; for AC50: read-out: HTT AJ AC50
Procedure, shortened: (§1)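 Splice-junction mRNAs (CJ, AJ) measured by TaqMan one-step RT-qPCR on cell lysates, using PPIA as reference for adherent A673 and GAPDH or GUSB for K562. Cells exposed for 24 h to 11 threefold concentrations up to 10 uM final, with DMSO at or below 0.25%.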

MYB mRNA = test: RT-qPCR splicing assay, MYB canonical (CJ) and alternative (AJ) junction mRNA; details: Homo sapiens; for IC50: read-out: MYB CJ IC50; for AC50: read-out: MYB AJ AC50
Procedure, shortened: as §1

K562 cells = test: Cell Titer Glo 2.0 cell viability assay; details: Homo sapiens, 500 cells/well, 72 hours
Procedure, shortened: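 K562 cells (500/well) in IMDM with 10% FBS were exposed to serially diluted compounds at 0.1% DMSO final. After 72 h at 37° C, 5% CO2, viability was read by CellTiter-Glo 2.0 luminescence, with medium-only blanks.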

SMN2 mRNA = test: RT-qPCR splicing assay, gene panel, SMN2 canonical junction (CJ) mRNA; details: Homo sapiens, read-out: SMN2 CJ IC50
Procedure, shortened: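 A673 (DMEM/10% FBS) or K562 (IMDM/10% FBS) cells were treated 24 h at 37 °C with an 11-point 3-fold dilution series, top final 10 uM, DMSO ≤0.25%. Lysates underwent one-step RT-qPCR for the canonical-junction isoform with GAPDH, GUSB or PPIA as housekeeper. ΔΔCt versus DMSO was converted to RQ (2^−ΔΔCt), then to percent response.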

[1] = decrease in CJ mRNA levels, larger panel of genes, Table 3
[2] = decrease in canonical junction mRNA, A673 or K562 cells, 24 hours treatment, Table 2
[3] = increase in alternative junction mRNA, A673 or K562 cells, 24 hours treatment, Table 2

SMILES | IC50 (HTT mRNA; [1]) [nM] | IC50 (HTT mRNA; [2]) [nM] | IC50 (MYB mRNA; [1]) [nM] | IC50 (MYB mRNA; [2]) [nM] | GI50 (K562 cells) [nM] | IC50 (SMN2 mRNA; [1]) [nM] | AC50 (HTT mRNA; [3]) [nM] | AC50 (MYB mRNA; [3]) [nM] | AC50 (HTT mRNA; 24 h) [nM] | IC50 (HTT mRNA; 24 h) [nM] | IC50 (HTT mRNA) [nM] | AC50 (MYB mRNA; 24 h) [nM] | IC50 (MYB mRNA; 24 h) [nM] | IC50 (MYB mRNA) [nM] | IC50 (SMN2 mRNA) [nM]
Fc1cc(-c2ccc3ncccc3c2)cc2cn(C3CCNCC3)nc12 [Compound 162, 6-[7-fluoro-2-(4-piperidyl)indazol-5-yl]quinoline] | > 10000 | > 10000 | > 10000 | > 10000 | 1000 to 10000 | 1000 to 10000 | > 10000 | > 10000 | – | – | – | – | – | – | –
Cc1ccc2cc(-c3cc(F)c4nn(C5CCNCC5)cc4c3)ccc2n1 [Compound 163, 6-[7-fluoro-2-(4-piperidyl)indazol-5-yl]-2-methyl-quinoline] | > 10000 | > 10000 | > 10000 | > 10000 | 1000 to 10000 | 1000 to 10000 | > 10000 | > 10000 | – | – | – | – | – | – | –
Cc1ncc2cc(-c3cc(F)c4nn(C5CCNCC5)cc4c3)ccc2n1 [Compound 165, 6-[7-fluoro-2-(4-piperidyl)indazol-5-yl]-2-methyl-quinazoline] | > 10000 | > 10000 | > 10000 | > 10000 | > 10000 | > 10000 | > 10000 | > 10000 | – | – | – | – | – | – | –
Cc1cn2nc(-c3cc(F)c4nn(C5CCNCC5F)cc4c3)cc(C)c2n1 (stereo not shown) [Compound 166, 6-[7-fluoro-2-(3-fluoro-4-piperidyl)indazol-5-yl]-2,8-dimethyl-imidazo [1,2-b]pyridazine] | < 100 | < 100 | 100 to 1000 | 100 to 1000 | 1000 to 10000 | < 100 | < 100 | 100 to 1000 | – | – | – | – | – | – | –
Cc1cn2nc(-c3cc(F)c4nn([C@H]5CCNC[C@@H]5F)cc4c3)cc(C)c2n1 [Compound 167, 6-(7-fluoro-2-((3S,4S)-3-fluoropiperidin-4-yl)-2H-indazol-5-yl)-2,8-dimethylimidazo[1,2-b]pyridazine] | 100 to 1000 | 100 to 1000 | 1000 to 10000 | 1000 to 10000 | 1000 to 10000 | < 100 | 100 to 1000 | 1000 to 10000 | – | – | – | – | – | – | –
Cc1cn2nc(-c3cc(F)c4nn(C5CCN(CCO)C6(CC6)C5)cc4c3)cc(C)c2n1 (stereo not shown) [Compound 180, 2-[7-[5-(2,8-dimethylimidazo[1,2-b]pyridazin-6-yl)-7-fluoro-indazol-2-yl]-4-azaspiro[2.5]octan-4-yl]ethanol] | – | – | – | – | 100 to 1000 | – | – | – | < 100 | < 100 | < 100 | 100 to 1000 | 100 to 1000 | 100 to 1000 | < 100
Cc1cn2nc(-c3cc(F)c4nn(C5CCN(C6CCC6)C6(CC6)C5)cc4c3)cc(C)c2n1 (stereo not shown) [Compound 186, 6-[2-(4-cyclobutyl-4-azaspiro[2.5]octan-7-yl)-7-fluoro-indazol-5-yl]-2,8-dimethyl-imidazo[1,2-b]pyridazine] | – | – | – | – | 100 to 1000 | – | – | – | < 100 | < 100 | < 100 | 100 to 1000 | 100 to 1000 | 100 to 1000 | < 100

More lines, main results first:

IC50 (HTT mRNA; [1]) [nM] | IC50 (HTT mRNA; [2]) [nM] | IC50 (MYB mRNA; [1]) [nM] | IC50 (MYB mRNA; [2]) [nM] | GI50 (K562 cells) [nM] | IC50 (SMN2 mRNA; [1]) [nM] | SMILES | AC50 (HTT mRNA; [3]) [nM] | AC50 (MYB mRNA; [3]) [nM] | AC50 (HTT mRNA; 24 h) [nM] | IC50 (HTT mRNA; 24 h) [nM] | IC50 (HTT mRNA) [nM] | AC50 (MYB mRNA; 24 h) [nM] | IC50 (MYB mRNA; 24 h) [nM] | IC50 (MYB mRNA) [nM] | IC50 (SMN2 mRNA) [nM]
< 100 | < 100 | 100 to 1000 | 100 to 1000 | 100 to 1000 | < 100 | Cc1cn2nc(-c3cc(F)c4nn([C@@H]5CCNC[C@H]5F)cc4c3)cc(C)c2n1 [Compound 168, 6-(7-fluoro-2-((3R,4R)-3-fluoropiperidin-4-yl)-2H-indazol-5-yl)-2,8-dimethylimidazo [1,2-b]pyridazine] | 100 to 1000 | 100 to 1000 | – | – | – | – | – | – | –
< 100 | < 100 | 100 to 1000 | 100 to 1000 | 100 to 1000 | < 100 | Cc1cn2nc(-c3cc(F)c4nn(C5CCNC6(CC6)C5)cc4c3)cc(C)c2n1 (stereo not shown) [Compound 171, 6-[2-(4-azaspiro[2.5]octan-7-yl)-7-fluoro-indazol-5-yl]-2,8-dimethyl-imidazo[1,2-b]pyridazine] | < 100 | 100 to 1000 | – | – | – | – | – | – | –
< 100 | < 100 | < 100 | < 100 | 100 to 1000 | < 100 | Cc1cn2nc(-c3cc(F)c4nn([C@H]5CCNC6(CC6)C5)cc4c3)cc(C)c2n1 [Compound 172] | < 100 | < 100 | – | – | – | – | – | – | –
< 100 | < 100 | 100 to 1000 | 100 to 1000 | 100 to 1000 | < 100 | Cc1cn2nc(-c3cc(F)c4nn([C@@H]5CCNC6(CC6)C5)cc4c3)cc(C)c2n1 [Compound 173] | < 100 | 100 to 1000 | – | – | – | – | – | – | –
< 100 | < 100 | 100 to 1000 | 100 to 1000 | 100 to 1000 | < 100 | Cc1cn2nc(-c3cc(F)c4nn(C5CCN(C)C6(CC6)C5)cc4c3)cc(C)c2n1 (stereo not shown) [Compound 174, 6-[7-fluoro-2-(4-methyl-4-azaspiro[2.5]octan-7-yl)indazol-5-yl]-2,8-dimethyl-imidazo[1,2-b]pyridazine] | < 100 | 100 to 1000 | – | – | – | – | – | – | –
< 100 | < 100 | 100 to 1000 | 100 to 1000 | 100 to 1000 | < 100 | CCN1CCC(n2cc3cc(-c4cc(C)c5nc(C)cn5n4)cc(F)c3n2)CC12CC2 (stereo not shown) [Compound 177, 6-[2-(4-ethyl-4-azaspiro[2.5]octan-7-yl)-7-fluoro-indazol-5-yl]-2,8-dimethyl-imidazo[1,2-b]pyridazine] | < 100 | 100 to 1000 | – | – | – | – | – | – | –
< 100 | < 100 | 100 to 1000 | 100 to 1000 | 100 to 1000 | < 100 | Cc1cn2nc(-c3cc(F)c4nn(C5CCN(CC6CC6)C6(CC6)C5)cc4c3)cc(C)c2n1 (stereo not shown) [Compound 183, 6-[2-[4-(cyclopropylmethyl)-4-azaspiro[2.5]octan-7-yl]-7-fluoro-indazol-5-yl]-2,8-dimethyl-imidazo[1,2-b]pyridazine] | < 100 | 100 to 1000 | – | – | – | – | – | – | –
< 100 | < 100 | 100 to 1000 | 100 to 1000 | 100 to 1000 | < 100 | Cc1cn2nc(-c3cc(F)c4nn(C5CCNC6(CCC6)C5)cc4c3)cc(C)c2n1 (stereo not shown) [Compound 189, 6-[2-(5-azaspiro[3.5]nonan-8-yl)-7-fluoro-indazol-5-yl]-2,8-dimethyl-imidazo[1,2-b]pyridazine] | < 100 | 100 to 1000 | – | – | – | – | – | – | –
< 100 | < 100 | 100 to 1000 | 100 to 1000 | 100 to 1000 | < 100 | Cc1cn2nc(-c3ccc4nn(C5CCNCC5)cc4c3)cc(C)c2n1 [Compound 192, 2,8-dimethyl-6-[2-(4-piperidyl)indazol-5-yl]imidazo[1,2-b]pyridazine] | 100 to 1000 | 100 to 1000 | – | – | – | – | – | – | –
< 100 | < 100 | 100 to 1000 | 100 to 1000 | 100 to 1000 | < 100 | Cc1cn2nc(-c3cc(F)c4nn(CC5CCNCC5)cc4c3)cc(C)c2n1 [Compound 212, 6-[7-fluoro-2-(4-piperidylmethyl)indazol-5-yl]-2,8-dimethyl-imidazo[1,2-b]pyridazine] | < 100 | 100 to 1000 | – | – | – | – | – | – | –
